ChEMBL document CHEMBL1201862, “PubChem BioAssay data set” (2004)
The source made the active and inactive calls. For most assays here, no stated cut-off is given here; in the data, actives have a measured EC50 and inactives only a lower limit.

Columns and labels:
[1] = HEK-293T cell viability reduction – luminescence, B-cell screen hits, cytotoxicity control for BCR NF-kB inhibitor project, dose response (AID 489021); type: functional, cell-based;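 further: HEK-293T cells carrying an NF-kB luciferase reporter; cells exposed to compound for about 14 hours before viability readout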
HEK293 = test: EBV LMP1 TES2 canonical NF-kB signalling blockers – cell-based, HEK293, luciferase, cherry-pick, dose response (AID 588343); type: functional; conditions: Homo sapiens
[2] = biological target: Latent membrane protein 1 (Human herpesvirus 4 (strain B95-8), UniProt P03230); test: LMP1 TES1 pathway selectivity over dsRED control – imaging, HEK293T, dual-color eGFP/dsRED, cherry-picks, selectivity assay for LMP1 NF-kB inhibitor project, dose response (AID 588398); type: functional, cell-based
[3] = biological target: Potassium voltage-gated channel subfamily KQT member 2 (Rattus norvegicus, UniProt O88943); test: blockers of KCNQ2 channel current – cell-based, automated electrophysiology, set II, rat KCNQ2, dose response (AID 588637); type: functional
Vero = test: cells; type: functional; conditions: Chlorocebus sabaeus
[4] = NIH-3T3 fibroblast cytotoxicity, dose response, cytotoxicity control, cell-based, fluorescence, Alamar Blue, secondary assay (AID 2327); type: functional;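 further: NIH-3T3 mouse fibroblasts cultured with fluconazole at 8 µg/mL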
[5] = fluconazole-exposed Candida albicans growth modulators – fluorescence, retest, confirmation (AID 2467); type: functional, cell-based
[6] = biological target: Serine/threonine-protein phosphatase (Candida dubliniensis (strain CD36 / CBS 7987 / NCPF 3949 / NRRLY-17841) (Yeast), UniProt B9W6M3); test: blockers of CaCl2-induced CDRE-lacZ signaling – S. cerevisiae, luminescence, secondary, dose response (AID 2388); type: functional, cell-based;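 further: yeast reporter cells carrying a calcineurin-responsive lacZ construct stimulated with calcium chloride; luminescent beta-galactosidase reporter signal in whole cells rather than isolated phosphatase activity; potency for inhibition where a drop in reporter signal means calcineurin blockade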
[7] = biological target: ATP-dependent molecular chaperone HSP82 (Candida albicans (strain WO-1) (Yeast), UniProt C4YTQ8); test: steroid-induced GRE reporter decrease in yeast – S. cerevisiae, luminescence, Hsp90 inhibitor project, dose response (AID 2400); type: functional, cell-based;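 further: beta-galactosidase luminescence from glucocorticoid response element reporter as proxy for Hsp90 function; inhibitor potency where signal loss means Hsp90 inhibition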
Melanocortin receptor 4 = Melanocortin receptor 4 (Homo sapiens, UniProt P32245); test: inhibitors of MC4R cAMP signaling – cell-based, TR-FRET, biased antagonists, dose response (AID 602298); type: functional;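 further: antagonist potency against agonist-stimulated cAMP production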
[8] = cAMP pathway inhibition in counterscreen cell line – TR-FRET cAMP detection, counter-screen for MC4R biased antagonist project, dose response (AID 602305); type: functional, cell-based;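 further: U2OS cells stimulated with forskolin near its EC80 as the cAMP inducer; potency is for inhibition of forskolin-stimulated cAMP signaling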
[9] = blockers of CAL PDZ–TMR peptide complex – biochemical, fluorescence polarization, untagged CAL PDZ, cherry-pick, set 2, dose response (AID 602254); type: functional
BJ [10] = test: BJ-TERT fibroblast viability loss – cell-based, RAS-independent, luminescence, dose response (AID 1933); type: functional; conditions: Homo sapiens
BJ [11] = test: cells; type: functional, cell-based; conditions: Homo sapiens
[12] = biological target: Luciferin 4-monooxygenase (Photinus pyralis, UniProt P08659); test: inhibition of purified Photinus pyralis luciferase – biochemical, luminescence, dose response (AID 1891)
[13] = Luminescence Cell-Based Dose Confirmation HTS to Identify Inhibitors of Platelet Dense Granule Release. [Related pubchem assays: 1663 (Primary HTS), 1678 (Summary of Project)]; type: functional
BJ [14] = test: BJ-TERT-LT-ST fibroblast viability loss – cell-based, RAS-independent, luminescence, dose response (AID 1935); type: functional; conditions: Homo sapiens;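 further: BJ fibroblasts immortalized with TERT plus LT and ST oncogenes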
[15] = DRD fibroblast viability loss – cell-based, non-viral oncogenic, luminescence, dose response (AID 1934); type: functional; conditions: Homo sapiens
BJ [16] = test: growth inhibition of engineered Ras-driven BJ cells – cell-based, alamar blue fluorescence, cherrypicked samples, dose response (AID 2631); type: functional; conditions: Homo sapiens;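 further: confirmatory dose-response assay in RAS-dependent BJ fibroblasts engineered with TERT, LT and ST, with cytotoxicity read by fluorescence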

Chain of Latent membrane protein 1 (P03230 whole entry): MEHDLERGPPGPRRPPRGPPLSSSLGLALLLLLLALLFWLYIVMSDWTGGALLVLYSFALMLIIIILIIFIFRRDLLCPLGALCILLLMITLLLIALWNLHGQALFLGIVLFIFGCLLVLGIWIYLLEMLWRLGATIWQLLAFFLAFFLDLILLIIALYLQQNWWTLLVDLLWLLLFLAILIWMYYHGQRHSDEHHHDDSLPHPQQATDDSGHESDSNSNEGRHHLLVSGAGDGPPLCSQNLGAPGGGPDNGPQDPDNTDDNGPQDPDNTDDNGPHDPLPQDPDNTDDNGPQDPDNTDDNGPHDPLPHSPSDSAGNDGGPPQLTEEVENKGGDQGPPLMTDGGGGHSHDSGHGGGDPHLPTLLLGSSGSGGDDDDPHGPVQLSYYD
Chain of Serine/threonine-protein phosphatase (B9W6M3 whole entry): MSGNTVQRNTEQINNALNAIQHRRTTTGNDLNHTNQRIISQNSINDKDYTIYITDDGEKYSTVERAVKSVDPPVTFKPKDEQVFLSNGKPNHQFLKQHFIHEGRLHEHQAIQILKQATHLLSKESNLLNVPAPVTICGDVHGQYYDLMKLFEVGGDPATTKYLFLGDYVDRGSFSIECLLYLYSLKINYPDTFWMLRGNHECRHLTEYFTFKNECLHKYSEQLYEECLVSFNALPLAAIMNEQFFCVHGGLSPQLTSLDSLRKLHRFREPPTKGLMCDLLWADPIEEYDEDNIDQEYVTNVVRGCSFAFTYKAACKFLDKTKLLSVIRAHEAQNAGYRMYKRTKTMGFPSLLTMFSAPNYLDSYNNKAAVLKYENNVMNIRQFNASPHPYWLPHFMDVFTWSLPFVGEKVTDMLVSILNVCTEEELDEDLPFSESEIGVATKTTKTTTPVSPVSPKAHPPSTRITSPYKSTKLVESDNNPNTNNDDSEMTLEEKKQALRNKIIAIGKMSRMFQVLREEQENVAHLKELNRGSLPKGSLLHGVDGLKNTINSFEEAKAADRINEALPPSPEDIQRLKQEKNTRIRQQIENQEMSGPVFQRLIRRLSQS
Chain of Melanocortin receptor 4 (P32245 whole entry): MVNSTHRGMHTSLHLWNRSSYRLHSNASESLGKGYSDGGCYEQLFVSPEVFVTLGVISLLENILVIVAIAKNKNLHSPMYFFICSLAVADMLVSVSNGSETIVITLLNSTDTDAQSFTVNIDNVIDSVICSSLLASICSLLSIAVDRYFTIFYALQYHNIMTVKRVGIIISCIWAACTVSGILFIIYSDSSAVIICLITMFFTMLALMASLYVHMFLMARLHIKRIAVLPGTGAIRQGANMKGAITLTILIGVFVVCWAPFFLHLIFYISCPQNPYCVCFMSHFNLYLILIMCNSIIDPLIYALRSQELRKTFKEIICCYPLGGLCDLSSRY
Chain of ATP-dependent molecular chaperone HSP82 (C4YTQ8 whole entry): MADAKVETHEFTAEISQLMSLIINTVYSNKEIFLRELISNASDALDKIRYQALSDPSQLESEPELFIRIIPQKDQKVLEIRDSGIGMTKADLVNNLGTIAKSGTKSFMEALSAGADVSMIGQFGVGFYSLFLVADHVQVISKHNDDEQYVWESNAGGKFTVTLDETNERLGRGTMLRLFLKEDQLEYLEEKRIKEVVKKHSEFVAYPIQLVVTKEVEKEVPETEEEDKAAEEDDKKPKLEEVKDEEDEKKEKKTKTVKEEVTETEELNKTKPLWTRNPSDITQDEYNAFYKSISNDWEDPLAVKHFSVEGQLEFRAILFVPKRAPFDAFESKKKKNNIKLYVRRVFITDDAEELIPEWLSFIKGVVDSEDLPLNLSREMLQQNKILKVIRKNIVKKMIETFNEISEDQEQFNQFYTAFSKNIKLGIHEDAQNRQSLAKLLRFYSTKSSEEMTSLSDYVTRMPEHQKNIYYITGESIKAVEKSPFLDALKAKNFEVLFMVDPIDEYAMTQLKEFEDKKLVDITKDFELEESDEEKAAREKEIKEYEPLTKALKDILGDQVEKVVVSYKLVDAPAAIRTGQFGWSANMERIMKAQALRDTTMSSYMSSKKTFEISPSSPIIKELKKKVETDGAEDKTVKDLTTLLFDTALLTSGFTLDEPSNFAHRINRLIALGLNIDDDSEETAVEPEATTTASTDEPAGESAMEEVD
Chain of Luciferin 4-monooxygenase (P08659 whole entry): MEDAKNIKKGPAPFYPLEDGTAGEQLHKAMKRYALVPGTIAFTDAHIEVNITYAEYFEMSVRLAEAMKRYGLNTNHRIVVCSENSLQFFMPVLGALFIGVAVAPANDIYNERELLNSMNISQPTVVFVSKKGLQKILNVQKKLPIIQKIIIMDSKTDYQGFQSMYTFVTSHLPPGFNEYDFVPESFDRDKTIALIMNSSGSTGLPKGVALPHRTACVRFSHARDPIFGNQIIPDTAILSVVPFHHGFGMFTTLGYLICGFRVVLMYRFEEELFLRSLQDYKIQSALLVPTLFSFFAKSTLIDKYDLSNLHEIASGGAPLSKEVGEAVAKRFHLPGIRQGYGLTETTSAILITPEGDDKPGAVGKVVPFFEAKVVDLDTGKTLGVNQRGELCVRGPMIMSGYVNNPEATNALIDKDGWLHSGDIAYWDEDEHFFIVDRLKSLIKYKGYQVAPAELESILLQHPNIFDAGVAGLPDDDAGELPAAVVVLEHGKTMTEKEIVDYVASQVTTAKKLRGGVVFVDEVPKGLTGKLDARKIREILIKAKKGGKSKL
Chain of Potassium voltage-gated channel subfamily KQT member 2 (O88943 whole entry): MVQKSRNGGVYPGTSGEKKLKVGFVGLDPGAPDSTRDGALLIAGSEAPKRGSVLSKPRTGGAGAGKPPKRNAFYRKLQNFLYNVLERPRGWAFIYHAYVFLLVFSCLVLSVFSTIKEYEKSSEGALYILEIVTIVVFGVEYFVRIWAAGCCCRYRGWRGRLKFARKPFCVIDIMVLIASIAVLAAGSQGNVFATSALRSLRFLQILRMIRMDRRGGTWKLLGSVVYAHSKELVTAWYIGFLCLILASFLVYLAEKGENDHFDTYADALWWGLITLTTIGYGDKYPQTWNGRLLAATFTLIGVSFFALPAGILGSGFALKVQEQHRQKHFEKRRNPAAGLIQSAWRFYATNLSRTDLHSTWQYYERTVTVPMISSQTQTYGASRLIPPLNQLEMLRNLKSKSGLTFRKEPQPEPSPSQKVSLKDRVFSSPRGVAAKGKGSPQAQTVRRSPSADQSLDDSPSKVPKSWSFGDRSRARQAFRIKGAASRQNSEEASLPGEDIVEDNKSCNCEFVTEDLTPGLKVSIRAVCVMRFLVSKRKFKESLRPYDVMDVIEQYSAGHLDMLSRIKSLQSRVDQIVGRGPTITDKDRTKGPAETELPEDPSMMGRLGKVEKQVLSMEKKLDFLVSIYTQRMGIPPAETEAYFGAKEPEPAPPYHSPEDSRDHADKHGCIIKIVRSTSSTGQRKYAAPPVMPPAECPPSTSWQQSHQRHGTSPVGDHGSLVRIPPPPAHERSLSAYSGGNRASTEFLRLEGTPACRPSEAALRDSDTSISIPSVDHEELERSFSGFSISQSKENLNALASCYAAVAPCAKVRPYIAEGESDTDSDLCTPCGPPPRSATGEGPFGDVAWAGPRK

COc1cc(-c2[nH]c(C(=O)NCC3CCCO3)cc3c4ccccc4nc2-3)cc(OC)c1OC (stereo unspecified)
IC50 [1]: 51.8 µM (inactive)
AC50 (HEK293): 37.8 µM (active)
AC50 [2]: 44.3 µM (active)

COc1cc(C(=O)Nc2cccc(C)c2C)c(Br)c(OC)c1OC
IC50 [3]: 0.633 µM (active)

O=C1/C(=C/c2ccncc2)SC(=S)N1Cc1ccccc1
AC50 (HEK293): 0.678 µM (active)
AC50 [2]: 30.1 µM (active)
CC50 (Vero): > 25 µM (active)

COc1ccc(N(CC(=O)Nc2ccccc2C(N)=O)S(=O)(=O)c2ccc(C)c([N+](=O)[O-])c2)cc1
EC50 [4]: > 150 µM (inactive)
EC50 [5]: 0.095 µM (active)
EC50 [6]: > 180 µM (inactive)
EC50 [7]: > 160 µM (inactive)

CCOc1ccc(C(=O)CCC(=O)NCC(=O)OCc2ccccc2)cc1OCC
IC50 (Melanocortin receptor 4): > 64.6 µM (inactive)
IC50 [8]: > 64.6 µM (inactive)

COCCSc1nnc(NC(=O)Cc2ccc(OC)cc2)s1
AC50 [9]: 101 µM (active)

COc1cccc(C(=O)Nc2ccc(N3CCCC3)cc2)c1
EC50 (BJ [10]): 9.4 µM (active)
EC50 (BJ [11]): 3.26 µM (active)
EC50 [12]: 0.856 µM (active)
EC50 [13]: 1.2 µM (active)
EC50 (BJ [14]): 13.8 µM (active)
EC50 [15]: 4.29 µM (active)
EC50 (BJ [16]): 86.1 µM (active)
